Reference: US4960900A, “Oxyimino derivatives of thiazole, method of preparation and use in therapy” (priority 1987, dated 1990)
Entries after “also recorded” stand apart in the source; their conditions may differ. Read-outs that look alike come from different tables or passages of the source.

Columns and labels:
[1] = prior art documents; cited from earlier work
[2] = prior art documents; cited from earlier work; remark: listed apart in the source
[3] = system: convulsions induced by supramaximal electroshock (MCE); assay: Anticonvulsant properties: convulsions induced by supramaximal electroshock (MCE), oral, mice; assay type: in vivo; conditions: per os, male mice, 30 min after administration; for ED50: Mus musculus, po, 0.5 h, read-out: ED50 in respect of convulsions induced by MCE
Source text: MCE: supramaximal electroshock;
*: ED50 in mg/kg, determined per os on groups each containing ten

[4] = system: male mice; assay: in vivo; assay type: in vivo
Protocol: (§1) The neurotoxic properties were assessed on male mice by the so-called "Rota-rod" test carried out thirty minutes after the oral administration of the substances to be studied. The animals (divided into groups each containing ten male mice per dose and per product) are installed on the rod and their fall is observed over the next two minutes.
(§2) The results obtained are expressed in the form of the 50% neurotoxic dose (TD50) per os, which is the dose causing 50% of the animals to fall.
(§3) Protection index: TD50 per os/ED50 per os
(§4) *dose determined per os on groups each containing ten male mice.

[5] = in vivo; assay type: in vivo; conditions: mouse, in vivo, po
Protocol: as §1, §2, §3, §4

[6] = system: male mice; assay: in vivo; conditions: for Therapeutic index MCE / Therapeutic index PTZ: LD50 per os/ED50 per os; for LD50: male mice
Protocol: (§5) The toxicity of the products to be studied was investigated by the oral administration, using an esophageal tube, of each of the said products to male mice with a body weight of 18 to 22 g, divided into groups each containing 10 to 20 animals. The mortality was recorded over a 14-day period.
(§6) The results obtained, which are expressed in the form of LD50 in mg/kg, are collated in Table II below.

[7] = in vivo; conditions: mouse, in vivo, po; for selectivity ratio: LD50 per os/ED50 per os
Protocol: as §5, §6

[8] = system: convulsions induced by pentetrazole (PTZ); assay: Anticonvulsant properties: convulsions induced by pentetrazole (PTZ), oral, mice; assay type: in vivo; conditions: per os, male mice, 30 min after administration, pentetrazole 125 mg/kg i.p.; for ED50: Mus musculus, po, 0.5 h, read-out: ED50 in respect of convulsions induced by PTZ; for ED50 in respect of convulsions induced by PTZ: 30 min
[9] = system: convulsive seizures; assay: Anticonvulsant properties in mice, overall statement (PTZ and MCE); assay type: in vivo, male mice; conditions: for most effective products according to the invention: in view of protection and therapeutic indices, Table IV
Protocol: The anticonvulsant properties were investigated on male mice, thirty minutes after the oral administration of the substances to be studied, by the induction of convulsive seizures.
These seizures are caused either by the intraperitoneal injection of pentetrazole (125 mg/kg) or by electrical stimulation of the cornea (supra-maximal electroshock, abbreviated to MCE).
The results, expressed in the form of the 50% effective dose (ED50) per os (dose protecting 50% of the animals), are collated in Table III below.

[10] = LD50, Table II, male mice, 14 days
[11] = LD50, Table IV, per os, male mice
[12] = TD50 per os/ED50 per os, MCE, read-out: Protection index MCE
[13] = TD50 per os/ED50 per os, PTZ, read-out: Protection index PTZ
[14] = Rota-rod, per os, male mice, 30 min after administration, read-out: TD50
[15] = versus sodium valproate and trimethadione

Row | SMILES | ED50 [3] [mg/kg] | selectivity ratio ([5]; Protection index MCE) | selectivity ratio ([5]; Protection index PTZ) | TD50 at 0.5 h ([5]; TD50) [mg/kg] | LD50 at 336 h [7, 10] [mg/kg] | LD50 at 336 h [7, 11] [mg/kg] | selectivity ratio ([7]; Therapeutic index MCE, MCE) | selectivity ratio ([7]; Therapeutic index PTZ, PTZ) | ED50 [8] [mg/kg] | also measured
1 | Cc1ncsc1C(C)O (centres unmarked) [1-(4-methylthiazol-5-yl)ethanol] | – | – | – | – | – | – | – | – | – | anticonvulsant properties (prior art) [1]: possesses anticonvulsant properties; also recorded: is an anticonvulsant; antihypoxic properties (prior art) [2]: devoid of beneficial antihypoxic effects
2 | Cc1ncsc1CO [5-hydroxymethyl-4-methylthiazole] | – | – | – | – | – | – | – | – | – | anticonvulsant properties (prior art) [1]: devoid of anticonvulsant effects
3 | CON=C(C)c1scnc1C [Ex. 1, 5-(1-methoxyiminoethyl)-4-methylthiazole] | 84 | 4.1 | 5.6 | 347 | 740 | 740 | 8.8 | 11.9 | 62 | protection indices compared with the reference products ([4]; mouse, in vivo): better than those of the reference products; therapeutic indices compared with the reference products ([6]; mouse, in vivo): better than those of the reference products
4 | CON=C(C)c1scnc1C.Cl [Ex. 2, 5-(1-methoxyiminoethyl)-4-methylthiazole hydrochloride] | 100 | – | – | 270 | 1000 | 1000 | – | – | 72 | Protection index MCE ([4]; mouse, in vivo, po): 2.7; Protection index PTZ ([4]; mouse, in vivo, po): 3.8; Therapeutic index MCE [6]: 10.0; Therapeutic index PTZ [6]: 13.9
5 | CO/N=C(\C)c1scnc1C [Ex. 3, 5-(1-methoxyiminoethyl)-4-methylthiazole] | 97 | 3 | 3.2 | 290 | 570 | 570 | 5.9 | 6.3 | 91 | activity as an anticonvulsant ([9]; pure E isomer versus mixture E/Z=91/9): less active than the corresponding mixture E/Z=91/9
6 | CCON=C(C)c1scnc1C [Ex. 4] | 150 | – | – | – | 1000 | – | – | – | 120 | –
7 | CCON=C(C)c1scnc1C [Ex. 5] | – | 6.3 | 7.5 | 750 | – | – | 8.3 | 10 | – | ED50 in respect of convulsions induced by MCE ([3]; 30 min): 120 mg/kg; protection indices compared with the reference products ([4]; mouse, in vivo): better than those of the reference products; therapeutic indices compared with the reference products ([6]; mouse, in vivo): better than those of the reference products; LD50 at 336 h ([7]; LD50): 1000 mg/kg; ED50 in respect of convulsions induced by PTZ [8]: 100 mg/kg
8 | CC(=NOC(C)C)c1scnc1C [Ex. 6] | > 200 | – | – | – | > 1000 | – | – | – | 112 | –
9 | CC(=NOC(C)C)c1scnc1C [Ex. 7] | – | – | – | – | – | – | – | – | – | ED50 in respect of convulsions induced by MCE [3]: > 200 mg/kg; LD50 ([6]; Table II, oral, 14 days): > 1000 mg/kg; ED50 in respect of convulsions induced by PTZ [8]: 140 mg/kg
10 | CCCCON=C(C)c1scnc1C [Ex. 8, 5-(1-n-butoxyiminoethyl)-4-methylthiazole] | > 200 | – | – | – | 750 | – | – | – | > 200 | –
11 | CCCCON=C(C)c1scnc1C.Cl [Ex. 9, 5-(1-n-butoxyiminoethyl)-4-methylthiazole hydrochloride] | 150 | 4 | 4.4 | 600 | > 1000 | > 1000 | > 6.7 | > 7.3 | 138 | –
12 | CC(=NOCc1ccccc1)c1scnc1C [Ex. 11, 5-(1-benzyloxyiminoethyl)-4-methylthiazole] | – | – | – | – | – | – | > 12.8 | – | – | ED50 in respect of convulsions induced by MCE ([3]; 30 min): 78 mg/kg; most effective products according to the invention [9]: most effective; selectivity ratio [5, 12]: 12.8; selectivity ratio [5, 13]: 21.7; TD50 at 0.5 h [5, 14]: 1000 mg/kg; Therapeutic index PTZ [6]: > 21.7; LD50 ([6]; Table IV, per os, 20160 min): > 1000 mg/kg; ED50 in respect of convulsions induced by PTZ [8]: 46 mg/kg
13 | CC(=NOCc1ccccc1)c1scnc1C [Ex. 12] | – | 8.6 | 13.5 | 1350 | – | – | – | – | – | ED50 in respect of convulsions induced by MCE ([3]; 30 min): 157 mg/kg; most effective products according to the invention [9]: most effective; protection indices compared with the reference products ([4]; mouse, in vivo): better than those of the reference products; Therapeutic index MCE [6]: > 6.4; Therapeutic index PTZ [6]: > 10.0; therapeutic indices compared with the reference products ([6]; mouse, in vivo): better than those of the reference products; LD50 at 336 h ([7]; LD50): > 1000 mg/kg; ED50 in respect of convulsions induced by PTZ [8]: 100 mg/kg
14 | CC(=NOCc1ccccc1F)c1scnc1C [Ex. 13] | 184 | – | – | – | – | – | > 5.4 | > 9.5 | 105 | protection indices compared with the reference products [4, 15]: better than those of the reference products; selectivity ratio [5, 12]: 4; selectivity ratio [5, 13]: 7.1; TD50 at 0.5 h [5, 14]: 750 mg/kg; LD50 ([6]; Table IV, per os, 20160 min): > 1000 mg/kg; therapeutic indices compared with the reference products [6, 15]: better than those of the reference products; LD50 at 336 h [7]: > 1000 mg/kg
15 | CC(=NOCc1cccc(Cl)c1)c1scnc1C [Ex. 14] | > 200 | – | – | – | > 1000 | > 1000 | – | > 7.1 | 140 | selectivity ratio [5, 13]: 5.4; TD50 at 0.5 h [5, 14]: 750 mg/kg
16 | CC(=NOCc1ccccc1C)c1scnc1C [Ex. 15] | – | – | – | – | > 1000 | – | – | – | 60 | –
